From patent US10835170B2, “Methods for detecting neuronal oscillation in the spinal cord associated with pain and diseases or disorders of the nervous system” (Rhode Island Hospital, priority 2015, dated 2020)

Test system: spinal cord dorsal horn (L4) neuronal oscillation
Test: Spinal cord dorsal horn LFP/PSD recording after intradermal capsaicin injection (model of acute pain)
Type: in vivo, rat
Details: anesthetized rats, FIG. 1B
Method: FIG. 1A is a schematic showing electrode placement in the spinal cord dorsal horn (L4) for the recoding of local field potential (LFP) from anesthetized rats (n=3 rats/group).
Experiments were conducted on anesthetized Sprague Dawley rats (200-250 g). […] LFP was sampled at a high frequency (25,000 Hz) and down-sampled offline to 250 Hz.
Natural sensory stimuli (e.g. brush and pinch) and intradermal injections of capsaicin were applied to the receptive field in the hindpaw corresponding to the recording site in the spinal cord. […] PSD plots the distribution of the power amplitude of a waveform as a function of frequency. Spontaneous oscillation in the spinal cord dorsal horn was enhanced compared to baseline LFP recording in response to capsaicin injection in the ipsilateral foot within physiologically relevant frequency bands, e.g., theta and alpha, oscillated at baseline. […] Thus, oscillation was normalized with systemic administration of an analgesic compound.

For `COc1cc(CNC(=O)CCCC/C=C/C(C)C)ccc1O` [capsaicin], the “Spontaneous oscillation in the spinal cord dorsal horn (PSD) compared to baseline LFP recording” value (intradermal 5% capsaicin injection in the ipsilateral foot, theta and alpha bands) was “enhanced”.

In the case of `CC(C)Cc1ccc(C(C)C(=O)O)cc1` (centres unmarked) [ibuprofen], the “Effect on capsaicin-enhanced PSD normalized to baseline” value (ibuprofen 400 mg/Kg intraperitoneally, after intradermal 5% capsaicin, n=3 rats/group) is reported as “mitigation of the enhanced PSD”.
